“And” between values parts separate entries of the source, which are not always exact repeats. Identical values can stand only once. “Also recorded” adds a separate entry of the source.
How the values were obtained:
[1] = Peptide stability in mouse plasma (UPLC); type: in vitro ADME; settings: for Recovered Peptide after 1 h in Mouse Plasma [%]: CD-1 mouse plasma, 37 °C, esters recovered as the corresponding acid
Description: (§1) The in vitro stability of peptides was assessed according to a previously described protocol with modifications. Peptides (3 g/L, 49 µL) dissolved in […] (DMSO/TWEEN 80/normal saline (5/5/90, v/v/v) were diluted with pooled mouse dipotassium ethylenediaminetetraacetic acid containing pooled plasma (Innovative Research, Novi, MI, USA) or pooled human cerebrospinal fluid (CSF) (both BioIVT, Westbury, NY, USA) to a total volume of 500 µL. The final peptide concentration was kept constant at 315 µmol/L in all experiments. The mixture was incubated (37 °C, 750 rpm; Thermomixer, Eppendorf AG, Hamburg, Germany) and an aliquot (95 µL) was taken at 0, 5, 15, 60, and 300 min. For peptide quantification, the sample was mixed with aqueous acetonitrile (90%, v/v, 300 µL) containing FA, 0.1% v/v and incubated on ice for 30 min. After two centrifugation steps (21,100× g, 3 min, Sorvall Legend Micro 21R Centrifuge, Thermo Scientific, Waltham, MA, USA), the supernatant (300 µL) was collected, freeze-dried (FreeZone Triad Cascade Benchtop, Labcono, Kansas City, MO, USA), reconstituted in aqueous acetonitrile (4.5%, v/v) containing FA (0.1%, v/v), and stored at −20 °C. Samples were analyzed by ultra-performance liquid chromatography (UPLC).
An ACQUITY UPLC H-Class chromatography system (Waters, Milford, MA, USA) coupled on-line to a photodiode array detector (absorbance recorded at 214 nm, Waters) and to the electrospray ionization source on a mass spectrometer (QDa detector, Waters) operated in the positive ion mode was used. Separation relied on a BEH-C18 column (inner diameter: 1.1 mm; length: 50 mm; particle size: 1.7 µm, Waters) at a flow rate of 0.1 mL/min using a linear aqueous acetonitrile gradient in the presence of FA (0.1%, v/v). Ionization was carried out at a source temperature of 450 °C using a cone voltage of 10 V and a capillary voltage of 1.5 kV. Mass spectra were typically acquired for an m/z range from 50 to 1250 at a sampling rate of 2 points per second. Quantities of the degraded peptides and resulting metabolites were estimated using peak areas of the UV signal at 214 nm relative to the initial peak areas (t = 0). Metabolites were identified using mass spectrometry by detecting the singly charged molecular ions.

female CD-1 mice [2] = assay: Hot-plate test; type: in vivo, mouse; settings: for Antinociception (AUC0-5h, %MPE·h): s.c. 20 µmol/kg (~13 mg/kg), female CD-1 mice
Description: Animal use and procedures were in accordance with the guidelines of The University of British Columbia animal care committee and the Canadian Council for Animal Care (CCAC, Protocol code: A17-0128, approval date: 30 August 2018). Experiments involved adult female CD-1 mice (25–30 g) housed under a 12 h light/dark cycle and had ad libitum access to rodent chow and water. Mice were allowed an acclimatization period of at least one week in the animal facility before experiments. Subcutaneous (s.c.) or intraperitoneal (i.p.) injections of drugs or vehicles were administered to animals at a volume of 10 mL/kg. In the formalin foot assay, each mouse was used once and euthanized immediately upon completion of the experiment due to irreversible tissue damage in the injected paw.
(§2) A commercially available hot-plate analgesia meter consisting of a round aluminum surface with (25 cm diameter) from Harvard Apparatus (Holliston, MA, USA) was used. A day before the experiment mice were acclimatized for 5 min in a transparent Plexiglas cylinder (height, 30 cm; diameter, 25 cm) on the switched-off hot-plate apparatus. Thereafter, the baseline latency of each animal was measured on the hot surface (52.0 ± 0.1 °C, 30 s cut-off time to prevent tissue damage) until a nociceptive response was induced. The animal was immediately removed from the hot surface after licking, lifting, or fluttering of the hind paws was observed. Latency responses after treatment were obtained in the same way. The %MPE for each animal was calculated using this equation: %MPE = (LR − BR)/(MR − BR)100%, where LR, MR, and BR represent measured, maximum (30 s), and baseline (~5 s) response time, respectively. The AUC for each animal was calculated from the %MPE time courses using this equation: AUC = (%MPE(Tp1) + %MPE(Tp2))·(Tp2 − Tp1)/2, where Tp represents the time interval between adjacent time points on the curve. Data were plotted as mean ± SEM.

plasma = settings: cited from earlier work
[3] = pooled mouse dipotassium ethylenediaminetetraacetic acid containing pooled plasma; settings: 37 °C, up to 300 min
human DOR = biological target: T1, human DOR (Homo sapiens, UniProt P41143); assay: Competitive radioligand ([3H]DADLE) displacement assay at DOR; type: binding; settings: analog at 6 nM
T1 construct: host or cells: COS-1 cells
Description: The binding affinity of peptides to the DOR was performed by Eurofins Cerep SA (Celle-Lévescault, France) using a competitive radioligand displacement assay according to a previously described method.

[4] = Peptide stability in human cerebrospinal fluid (UPLC); type: in vitro ADME; settings: pooled human cerebrospinal fluid, pooled human CSF, read-out: peptide recovered in CSF after 5 h of incubation
Description: as §1, with “After two centrifugation steps (21,100× g, 3 min, Sorvall Legend Micro 21R Centrifuge, Thermo Scientific, Waltham, MA, USA), the supernatant (300 µL) was collected, freeze-dried (FreeZone Triad Cascade Benchtop, Labcono, Kansas City, MO, USA), reconstituted in aqueous acetonitrile (4.5%, v/v) containing FA (0.1%, v/v), and stored at −20 °C.” left out
An ACQUITY UPLC H-Class chromatography system (Waters, Milford, MA, USA) coupled on-line to a photodiode array detector (absorbance recorded at 214 nm, Waters) and to the electrospray ionization source on a mass spectrometer (QDa detector, Waters) operated in the positive ion mode was used. […] Quantities of the degraded peptides and resulting metabolites were estimated using peak areas of the UV signal at 214 nm relative to the initial peak areas (t = 0). […]

female CD-1 mice [5] = assay: Safety test in mice, escalating doses; type: in vivo, mouse
Source text: (§3) Throughout the eight-day duration of experiments investigating the development of physical dependence and tolerance, clinical health scores (CHS) of mice on a 5-point scale (0 normal and 5 highest severity) provided by the University of British Columbia Animal Care Committee were monitored. Scores were given in 5 categories (appearance (grooming, posture), behavior (gait, activity), local injection site skin appearance, neurological signs, and body weight). Based on the guidelines, mice with a score of 5 in any category or a cumulative score of >15, or body weight loss of >20% would be euthanized.
Mice were then monitored for mortality and clinical signs including respiratory activity, body weight, hydration, behavior (self-biting and circling), and pain assessment (Facial Grimace) to determine the maximum tolerated dose.

female CD-1 mice [6] = assay: Tolerance study, hot-plate after repeated dosing; type: in vivo, mouse; settings: multidose tolerance and physical dependence tests, 5-point scale
Source text: as §3
as §2, with “A day before the experiment mice were acclimatized for 5 min in a transparent Plexiglas cylinder (height, 30 cm; diameter, 25 cm) on the switched-off hot-plate apparatus.” left out, “The animal was immediately removed from the hot surface after licking, lifting, or fluttering of the hind paws was observed. Latency responses after treatment were obtained in the same way.” left out, “Data were plotted as mean ± SEM.” left out

female CD-1 mice [7] = assay: Respiratory depression assay; type: in vivo, mouse
Description: The respiratory rate was assessed in awake mice lightly restrained in a well-ventilated 50 mL falcon tube with a darkened tip. Prior to the drug treatment, each animal was habituated in the tube for 30 min. The falcon tube was secured onto a stand facing lengthwise towards a video camera. […] Animals were recorded at selected time points for 10 min to measure the respiration rate.

female CD-1 mice [8] = assay: Dependence study, Nlx-induced jumps; settings: 8 days, Nlx 4 mg/kg i.p.
Description: Two hours after the last injection at 3 PM, mice received an i.p. injection of Nlx (4 mg/kg), after which they were immediately placed in a Plexiglas cylinder (height, 30 cm; diameter, 25 cm). The number of jumps induced by Nlx, defined as simultaneous removal of all four paws from the ground surface, were counted.

female CD-1 mice [9] = assay: Formalin foot assay; type: in vivo, mouse; settings: morphine 10 mg/kg s.c.
Description: On the day of the experiment, mice were acclimatized to the experimental setup by putting them in darkened, non-transparent plexiglas cylinders (height, 20 cm; diameter, 9 cm) placed on a glass plane for 2 h. […] After successful injection, mice were immediately placed into cylinders and their behavior was monitored for 1 h. Video cameras (Lorex Technology, Markham, ON, Canada) underneath each animal were used to record the nociceptive responses defined as licking or biting at the formalin injected right paw. The accumulated licking and biting time of each animal was determined and recorded in 5 min bins. The total response time was plotted as early phase 1 from 0 to 5 min, and late phase 2 from 20 to 40 min after formalin injection.

mice = settings: mouse, in vivo; cited from earlier work
C57BL6 mice = settings: cited from earlier work
[10] = day six of treatment; cited from earlier work
[11] = morphine s.c. 10 mg/kg, hot-plate

T1 sequence (P41143 whole entry): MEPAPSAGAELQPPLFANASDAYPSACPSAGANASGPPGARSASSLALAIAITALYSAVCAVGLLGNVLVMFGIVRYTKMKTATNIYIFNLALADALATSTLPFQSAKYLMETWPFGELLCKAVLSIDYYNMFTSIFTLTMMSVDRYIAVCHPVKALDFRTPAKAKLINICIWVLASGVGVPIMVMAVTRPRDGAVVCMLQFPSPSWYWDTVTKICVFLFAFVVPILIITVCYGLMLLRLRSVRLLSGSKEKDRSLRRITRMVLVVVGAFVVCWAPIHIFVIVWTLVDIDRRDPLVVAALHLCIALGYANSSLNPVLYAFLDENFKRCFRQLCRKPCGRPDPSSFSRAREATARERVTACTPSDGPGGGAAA

## COC(=O)[C@H](CC(C)C)NC(=O)[C@H](Cc1ccccc1)NC(=O)CNC(=O)CNC(=O)[C@H](Cc1ccc(O)cc1)NC(C)=O [KK-14]
[1]
  Recovered Peptide after 1 h in Mouse Plasma [%]: 82 ± 5%

## C=CCCC(=O)N[C@@H](Cc1ccc(O)cc1)C(=O)NCC(=O)NCC(=O)N[C@@H](Cc1ccccc1)C(=O)N[C@@H](CC(C)C)C(=O)OC [KK-105]
[1]
  Recovered Peptide after 1 h in Mouse Plasma [%]: 80 ± 7%

## COC(=O)[C@H](CC(C)C)NC(=O)[C@H](Cc1ccccc1)NC(=O)CNC(=O)CNC(=O)[C@H](Cc1ccc(O)cc1)NC(=O)C1CCCCC1 [KK-112]
[1]
  Recovered Peptide after 1 h in Mouse Plasma [%]: 62 ± 4%
Female CD-1 mice [2]; hot-plate
  Antinociception (AUC0-5h, %MPE·h): 51 ± 10 %MPE·h

## CCCCCCCC(=O)N[C@@H](Cc1ccc(O)cc1)C(=O)NCC(=O)NCC(=O)N[C@@H](Cc1ccccc1)C(=O)N[C@@H](CC(C)C)C(=O)OC [KK-108]
[1]
  Recovered Peptide after 1 h in Mouse Plasma [%]: 73 ± 4%
Female CD-1 mice [2]; hot-plate
  Antinociception (AUC0-5h, %MPE·h): 48 ± 15 %MPE·h

## COC(=O)[C@H](CC(C)C)NC(=O)[C@H](Cc1ccccc1)NC(=O)CNC(=O)CNC(=O)[C@H](Cc1ccc(O)cc1)NC(=O)C(C)(C)C [KK-102]
[1]
  Recovered Peptide after 1 h in Mouse Plasma [%]: 94 ± 5% and 94 ± 3%
[1]; mouse, plasma
  half-life: 2.5 min
Female CD-1 mice [2]; hot-plate, s.c. ~13 mg/kg
  increase of antinociception AUC compared to Leu-ENK: 8 fold
Female CD-1 mice [2]; hot-plate
  Antinociception (AUC0-5h, %MPE·h): 112 %MPE·h and 112 ± 24 %MPE·h

## H2N-YGGFL-COOH
plasma
  cleaved bond: Tyr-Gly, first_seen; also recorded: Gly-Phe
[3]
  fragment found: H2N-GGFL-COOH, major; also recorded: H2N-FL-COOH, major

## COC(=O)[C@H](CC(C)C)NC(=O)[C@H](Cc1ccccc1)NC(=O)CNC(=O)CNC(=O)[C@H](Cc1ccc(O)cc1)NC(=O)Cc1ccccc1 [KK-81]
[1]
  Recovered Peptide after 1 h in Mouse Plasma [%]: 88 ± 7%
Human DOR
  Relative Binding to DOR Compared to Leu-ENK [%]: 41 ± 25%

## CC(C)C[C@H](NC(=O)[C@H](Cc1ccccc1)NC(=O)CNC(=O)CNC(=O)[C@H](Cc1ccc(O)cc1)NC(=O)C(C)(C)C)C(=O)O [KK-103]
[4]
  remaining at 5 h, 315 µmol/L: > 95%
[1]
  Recovered Peptide after 1 h in Mouse Plasma [%]: 93 ± 1%
[1]; mouse plasma in vitro, extrapolated from 5 h incubation
  extrapolated plasma half-life: 37 h
[1]; mouse, pooled mouse K2EDTA plasma, 5 h, plasma, read-out: intact peptide remaining in plasma after 5 h of incubation
  remaining at 5 h, 315 µmol/L: > 90%
[1]; plasma in vitro
  increase of plasma half-life over Leu-ENK: ~ 90 fold and 90 fold
Female CD-1 mice [5]; s.c. 650 mg/kg
  abnormal behaviors / clinical scores at maximum deliverable dose: did not show any signs of abnormal behaviors
Female CD-1 mice [5]; s.c., limited by solubility
  maximum deliverable dose (safe): 650 mg/kg
Female CD-1 mice [6]
  clinical health score (CHS): 0
Female CD-1 mice [7]; KK-103 13 mg/kg s.c., 30 to 240 min
  respiration rate versus vehicle: comparable to that of mice treated with vehicle
Female CD-1 mice [8]; KK-103 13 mg/kg twice daily
  physical dependence, Nlx-induced jumps in first 10 min: not a single jump was observed

## CN1CC[C@]23c4c5ccc(O)c4O[C@H]2[C@@H](O)C=C[C@H]3[C@H]1C5 [morphine]
Female CD-1 mice [2]; morphine s.c. 10 mg/kg, 2 h
  antinociception at 2 h: ~ 10 %MPE
Female CD-1 mice [2]; [11]
  maximum antinociception: 87 %MPE
  time to maximum antinociception: ≤ 15 min
Female CD-1 mice [9]; phase 1 (0–5 min)
  reduction of paw licking and biting time compared to control, phase 1: 30%
Female CD-1 mice [9]; phase 2 (20–40 min)
  nociceptive response, phase 2: completely diminished the nociceptive response
Female CD-1 mice [7]; morphine 10 mg/kg s.c., 30 min post-injection
  decrease of respiratory rate compared with vehicle: 56%
mice
  decrease of breathing rate: 1.7 fold
C57BL6 mice
  time of peak effect: 20 min
Female CD-1 mice [8]; morphine 10 mg/kg twice daily
  physical dependence, Nlx-induced withdrawal: significant withdrawal syndromes
[10]
  residual effect of morphine: approximately 30%

## CC(C)C[C@H](NC(=O)[C@H](Cc1ccccc1)NC(=O)CNC(=O)CNC(=O)[C@@H](N)Cc1ccc(O)cc1)C(=O)O [Leu-ENK, Leu-Enkephalin]
[4]
  remaining at 5 h, 315 µmol/L: > 80%
[1]; 5 h, plasma
  intact peptide remaining in plasma after 5 h of incubation: undetectable
[1]
  Recovered Peptide after 1 h in Mouse Plasma [%]: 23 ± 3% and 23 ± 2%
Female CD-1 mice [2]; hot-plate
  Antinociception (AUC0-5h, %MPE·h): 14 %MPE·h and 14 ± 6 %MPE·h
Female CD-1 mice [2]; s.c. 13 mg/kg, hot-plate
  peak antinociception: ~ 10 %MPE
  time of decline of antinociception to baseline: 1.5 h
  time of peak antinociception post-injection: 1 h

## CCCCCC(=O)N[C@@H](Cc1ccc(O)cc1)C(=O)NCC(=O)NCC(=O)N[C@@H](Cc1ccccc1)C(=O)N[C@@H](CC(C)C)C(=O)OC [KK-93]
[1]
  Recovered Peptide after 1 h in Mouse Plasma [%]: 85 ± 7%
Female CD-1 mice [2]; hot-plate
  Antinociception (AUC0-5h, %MPE·h): 51 ± 13 %MPE·h

From article PMC8308721 (Pharmaceutics, 2021)
